Test in all cases: microbe, parasite or virus in culture
Holding throughout (type): cell-based, Pseudomonas aeruginosa

In one experiment the test system is MDR P. aeruginosa PA 919. The conditions noted are these: MDR PA 919, 18 h. As for the experimental part:
(§1) We selected six different P. aeruginosa isolates that were described as MDR and had been isolated from clinical and municipal waste water ([Schwartz et al., 2006]). The minimal inhibitory concentration (MIC) was determined in a microdilution assay using Mueller-Hinton (MH) broth following a previously published protocol ([Wiegand et al., 2008]). Briefly, a twofold serial dilution of the antibiotics and peptides were prepared and added to a bacteria solution, resulting in 2–5 10^5 CFU/ml. The microtiter plates (polypropylene, Corning) were incubated for 18 h at 37°C and MICs were taken visually.

For a further experiment, the system named is MDR P. aeruginosa PA253. Conditions: MDR PA253, 18 h. As for the experimental part: as §1
In the next experiment the test system is P. aeruginosa PA01-wt. Conditions: -wt, 18 h. As for the experimental part:
as §1

The subject of a further experiment is MDR P. aeruginosa PA 910. Conditions: MDR PA 910, 18 h. As for the experimental part: as §1

≈ marks a conversion by molar mass, not a printed value. Peptide text beside a SMILES is read from it.

Consider `CC[C@H](C)[C@H](NC(=O)[C@H](CCCNC(=N)N)NC(=O)[C@H](CC(C)C)NC(=O)[C@H](CCCNC(=N)N)NC(=O)[C@@H](N)C(C)C)C(=O)N[C@@H](CCCNC(=N)N)C(=O)N[C@H](C(=O)N[C@@H](C)C(=O)N[C@H](C(=O)N[C@H](C(=O)N[C@@H](CCCNC(=N)N)C(=O)N[C@@H](C)C(N)=O)[C@@H](C)CC)C(C)C)C(C)C` [Bac034] (H-VRLRIRVAVIRA-NH2), for which, in the experiment with MDR P. aeruginosa PA 919, the “MIC against MDR isolates of PA, PA919” value came out at 32 µM. Besides, the “MIC against MDR isolates of PA, PA253” value against MDR P. aeruginosa PA253 stood at 64 µM. In the experiment with P. aeruginosa PA01-wt, the “MIC against PA01 wt” value is 32 µM (≈ 45.5 µg/mL).

For the molecule `CC[C@H](C)[C@H](N)C(=O)N[C@@H](CC(C)C)C(=O)N[C@@H](CCCCN)C(=O)N[C@@H](Cc1c[nH]c2ccccc12)C(=O)N[C@@H](CCCCN)C(=O)N[C@@H](CCCCN)C(=O)NCC(=O)N[C@@H](Cc1c[nH]c2ccccc12)C(=O)N[C@@H](Cc1c[nH]c2ccccc12)C(=O)N[C@@H](CCCCN)C(=O)N[C@@H](Cc1c[nH]c2ccccc12)C(=O)N[C@@H](Cc1ccccc1)C(=O)N[C@@H](CCCNC(=N)N)C(N)=O` [Indopt 8] (H-ILKWKKGWWKWFR-NH2), the “MIC against MDR isolates of PA, PA919” value with MDR P. aeruginosa PA 919 is 16 µM. Besides, the “MIC against MDR isolates of PA, PA253” value against MDR P. aeruginosa PA253 amounted to 8 µM. The “MIC against PA01 wt” value in the experiment with P. aeruginosa PA01-wt is 4 µM (≈ 7.45 µg/mL).

In the case of `CC[C@H](C)[C@H](N)C(=O)N[C@@H](CC(C)C)C(=O)N[C@@H](CCCCN)C(=O)N[C@@H](Cc1c[nH]c2ccccc12)C(=O)N[C@@H](CCCCN)C(=O)N[C@@H](CCCNC(=N)N)C(=O)N[C@@H](CCCCN)C(=O)N[C@@H](Cc1c[nH]c2ccccc12)C(=O)N[C@@H](Cc1c[nH]c2ccccc12)C(=O)N[C@@H](CCCCN)C(=O)N[C@@H](Cc1c[nH]c2ccccc12)C(=O)N[C@@H](CCCNC(=N)N)C(=O)N[C@@H](CCCNC(=N)N)C(N)=O` [Indopt 9] (H-ILKWKRKWWKWRR-NH2), the “MIC against MDR isolates of PA, PA919” value in the experiment on MDR P. aeruginosa PA 919 worked out at 16 µM. Further, the “MIC against MDR isolates of PA, PA253” value against MDR P. aeruginosa PA253 was found to be 4 µM. Also, the “MIC against PA01 wt” value against P. aeruginosa PA01-wt is 1 (1) μM.

As for `CC[C@H](C)[C@H](N)C(=O)N[C@@H](CC(C)C)C(=O)N[C@@H](CCCCN)C(=O)N[C@@H](Cc1c[nH]c2ccccc12)C(=O)N[C@@H](CCCCN)C(=O)N[C@H](C(=O)N[C@@H](CCCCN)C(=O)N[C@@H](Cc1c[nH]c2ccccc12)C(=O)N[C@@H](Cc1c[nH]c2ccccc12)C(=O)N[C@@H](CCCCN)C(=O)N[C@@H](Cc1c[nH]c2ccccc12)C(=O)N[C@@H](Cc1ccccc1)C(=O)N[C@@H](CCCNC(=N)N)C(N)=O)[C@@H](C)O` [Indopt 11] (H-ILKWKTKWWKWFR-NH2), the “MIC against MDR isolates of PA, PA919” value in the experiment with MDR P. aeruginosa PA 919 was 16 µM. Besides, in the experiment on MDR P. aeruginosa PA253, the “MIC against MDR isolates of PA, PA253” value turned out to be 4 µM. Also, the “MIC against PA01 wt” value in the experiment with P. aeruginosa PA01-wt turned out to be 2 µM (≈ 3.81 µg/mL).

Take `CC[C@H](C)[C@H](NC(=O)[C@H](CCCCN)NC(=O)[C@H](CCCNC(=N)N)NC(=O)[C@H](Cc1c[nH]c2ccccc12)NC(=O)[C@H](Cc1c[nH]c2ccccc12)NC(=O)[C@@H](N)CCCNC(=N)N)C(=O)N[C@@H](Cc1c[nH]c2ccccc12)C(=O)N[C@@H](CCCCN)C(=O)N[C@@H](Cc1c[nH]c2ccccc12)C(N)=O` [LOP1] (H-RWWRKIWKW-NH2): the “MIC against MDR isolates of PA, PA919” value in the experiment on MDR P. aeruginosa PA 919 lay within 2 to 4 µM. Also, the “MIC against MDR isolates of PA, PA253” value against MDR P. aeruginosa PA253 came out at 8 µM. For the same molecule, in the experiment with P. aeruginosa PA01-wt, the “MIC against PA01 wt” value was 2 µM (≈ 2.89 µg/mL).

As to `CC[C@H](C)[C@H](NC(=O)[C@H](CCCNC(=N)N)NC(=O)[C@H](C)NC(=O)CNC(=O)[C@@H](N)CCCNC(=N)N)C(=O)N[C@H](C(=O)N[C@H](C(=O)N[C@H](C(=O)N[C@@H](CCCNC(=N)N)C(=O)N[C@H](C(=O)N[C@@H](C)C(=O)N[C@@H](CCCNC(=N)N)C(N)=O)C(C)C)[C@@H](C)CC)C(C)C)C(C)C` [Peptide G2] (H-RGARIVVIRVAR-NH2), in the experiment on MDR P. aeruginosa PA 919, the “MIC against MDR isolates of PA, PA919” value turned out to be 16 µM. In the experiment with MDR P. aeruginosa PA253, the “MIC against MDR isolates of PA, PA253” value turned out to be 32 µM. For the same molecule, the “MIC against PA01 wt” value against P. aeruginosa PA01-wt was 32 µM (≈ 43.7 µg/mL).

For `CC[C@H](C)[C@H](NC(=O)[C@H](CCCNC(=N)N)NC(=O)[C@H](C)NC(=O)[C@H](CCCNC(=N)N)NC(=O)[C@@H](N)CCCNC(=N)N)C(=O)N[C@H](C(=O)N[C@H](C(=O)N[C@H](C(=O)N[C@@H](CCCNC(=N)N)C(=O)N[C@H](C(=O)N[C@@H](C)C(=O)N[C@@H](CCCNC(=N)N)C(N)=O)C(C)C)[C@@H](C)CC)C(C)C)C(C)C` [Peptide R2] (H-RRARIVVIRVAR-NH2), in the experiment on MDR P. aeruginosa PA 919, the “MIC against MDR isolates of PA, PA919” value was 16 µM. Moreover, the “MIC against MDR isolates of PA, PA253” value in the experiment with MDR P. aeruginosa PA253 was determined as 32 µM. Also, the “MIC against PA01 wt” value against P. aeruginosa PA01-wt came to 32 µM (≈ 46.8 µg/mL).

Regarding `CC[C@H](C)[C@H](NC(=O)[C@H](CCCNC(=N)N)NC(=O)[C@H](Cc1c[nH]c2ccccc12)NC(=O)[C@H](CC(C)C)NC(=O)[C@@H](N)CCCNC(=N)N)C(=O)N[C@H](C(=O)N[C@H](C(=O)N[C@H](C(=O)N[C@@H](CCCNC(=N)N)C(=O)N[C@H](C(=O)N[C@@H](C)C(=O)N[C@@H](CCCNC(=N)N)C(N)=O)C(C)C)[C@@H](C)CC)C(C)C)C(C)C` [Peptide W3] (H-RLWRIVVIRVAR-NH2), the “MIC against PA910 in μM (peptides, Table 4)” value in the experiment with MDR P. aeruginosa PA 910 is 32 µM (≈ 49.2 µg/mL).

In the case of `CC[C@H](C)[C@H](NC(=O)[C@H](CCCNC(=N)N)NC(=O)[C@H](Cc1c[nH]c2ccccc12)NC(=O)[C@H](CCCNC(=N)N)NC(=O)[C@@H](N)C(C)C)C(=O)N[C@@H](CCCNC(=N)N)C(=O)N[C@H](C(=O)N[C@@H](C)C(=O)N[C@H](C(=O)N[C@H](C(=O)N[C@@H](CCCNC(=N)N)C(=O)N[C@@H](C)C(N)=O)[C@@H](C)CC)C(C)C)C(C)C` [S-W3] (H-VRWRIRVAVIRA-NH2), the “MIC against PA910 in μM (peptides, Table 4)” value with MDR P. aeruginosa PA 910 worked out at 16 µM (≈ 23.9 µg/mL).

Take `CC[C@H](C)[C@H](NC(=O)[C@H](CCCNC(=N)N)NC(=O)[C@H](Cc1c[nH]c2ccccc12)NC(=O)[C@H](CCCNC(=N)N)NC(=O)[C@@H](N)CCCNC(=N)N)C(=O)N[C@H](C(=O)N[C@H](C(=O)N[C@H](C(=O)N[C@@H](CCCNC(=N)N)C(=O)N[C@H](C(=O)N[C@@H](CCCNC(=N)N)C(=O)N[C@@H](CCCNC(=N)N)C(N)=O)C(C)C)[C@@H](C)CC)C(C)C)C(C)C` [Sub 3] (H-RRWRIVVIRVRR-NH2): the “MIC against MDR isolates of PA, PA919” value in the experiment on MDR P. aeruginosa PA 919 came out at 16 µM. For the same molecule, in the experiment on MDR P. aeruginosa PA253, the “MIC against MDR isolates of PA, PA253” value was 8 µM. In addition, in the experiment on P. aeruginosa PA01-wt, the “MIC against PA01 wt” value stood at 8 µM (≈ 13.3 µg/mL).

The values are drawn from publication PMC6901909, “Synergy Pattern of Short Cationic Antimicrobial Peptides Against Multidrug-Resistant Pseudomonas aeruginosa” (Frontiers in Microbiology, 2019).
